Our source for the relative viability values is the supplement of paper PMC10307832.

What all share (assay): relative viability (nuclei count vs DMSO), 5 days (fraction); higher = more cells survive
Compound in the experiment “Fedratinib + Pictilisib”: Cc1cnc(Nc2ccc(OCCN3CCCC3)cc2)nc1Nc1cccc(S(=O)(=O)NC(C)(C)C)c1 [Fedratinib] + CS(=O)(=O)N1CCN(Cc2cc3nc(-c4cccc5[nH]ncc45)nc(N4CCOCC4)c3s2)CC1 [Pictilisib] (partner 1 µM)
In a few lines: (§1)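 Each reported value is a median over duplicate plates. It expresses relative viability: treated-well nuclei count divided by vehicle-well nuclei count. Lung cancer cell lines in 1536-well plates were dosed by pin tool a day after seeding, alone with one drug or with a fixed anchor-drug dose plus five library-drug doses (not always all listed) in √10 steps, and nuclei were counted after 5 days.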

Compound in the experiment “Fedratinib + Crizotinib”: Cc1cnc(Nc2ccc(OCCN3CCCC3)cc2)nc1Nc1cccc(S(=O)(=O)NC(C)(C)C)c1 [Fedratinib] + C[C@@H](Oc1cc(-c2cnn(C3CCNCC3)c2)cnc1N)c1c(Cl)ccc(F)c1Cl [Crizotinib] (partner 1 µM)
In a few lines: as §1

Compound in the experiment “GW-2580 + Alpelisib”: COC1=CC=C(C=C1)COC2=C(C=C(C=C2)CC3=CN=C(N=C3N)N)OC [GW-2580] + Cc1nc(NC(=O)N2CCC[C@H]2C(N)=O)sc1-c1ccnc(C(C)(C)C(F)(F)F)c1 [Alpelisib] (partner 2 µM)
In a few lines: as §1

Compound in the experiment “GW-2580 + Foretinib”: COC1=CC=C(C=C1)COC2=C(C=C(C=C2)CC3=CN=C(N=C3N)N)OC [GW-2580] + COc1cc2c(Oc3ccc(NC(=O)C4(C(=O)Nc5ccc(F)cc5)CC4)cc3F)ccnc2cc1OCCCN1CCOCC1 [Foretinib] (partner 0.25 µM)
In a few lines:
as §1

Compound in the experiment “Fedratinib + Linsitinib”: Cc1cnc(Nc2ccc(OCCN3CCCC3)cc2)nc1Nc1cccc(S(=O)(=O)NC(C)(C)C)c1 [Fedratinib] + C[C@]1(O)C[C@@H](c2nc(-c3ccc4ccc(-c5ccccc5)nc4c3)c3c(N)nccn32)C1 [Linsitinib] (partner 1 µM)
In a few lines: as §1

For the cell line UMC-11, the relative viability in the experiment with Fedratinib + Pictilisib (first compound 0.1 µM) turned out to be 0.672; with Fedratinib + Pictilisib (first compound 0.3162 µM) it was 0.82; in the experiment with Fedratinib + Pictilisib (first compound 1 µM), 0.397; in the experiment with Fedratinib + Crizotinib (first compound 0.1 µM), 0.573; with Fedratinib + Crizotinib (first compound 0.3162 µM), 0.581; with Fedratinib + Crizotinib (first compound 1 µM), 0.379. For the same cell line, the relative viability was 0.959 in the experiment with GW-2580 + Alpelisib (first compound 0.08 µM); 1.07 with GW-2580 + Alpelisib (first compound 0.8 µM); 1.11 in the experiment with GW-2580 + Alpelisib (first compound 2.53 µM); 1.21 with GW-2580 + Alpelisib (first compound 8 µM); 1.06 with GW-2580 + Foretinib (first compound 0.08 µM); 1.04 with GW-2580 + Foretinib (first compound 0.8 µM). The relative viability in the experiment with GW-2580 + Foretinib (first compound 2.53 µM) amounted to 1.1; with GW-2580 + Foretinib (first compound 8 µM), 1.23; with Fedratinib + Linsitinib (first compound 0.1 µM), 0.995; with Fedratinib + Linsitinib (first compound 0.3162 µM), 0.864; with Fedratinib + Linsitinib (first compound 1 µM), 0.848.
